Consider nine compounds from patent US20260207513A1, “PHARMACEUTICAL COMPOSITION OF SIPONIMOD” (Synthon B.V., priority 2022, published 2026).

The nature of data set [1]: Water content w(H2O), Karl Fischer method. Type of data set: physicochemical. An excerpt:
[…] The water content can be determined according to the Karl Fischer method as described in Ph. Eur. section 2.5.32. The determination is done by coulometry, preferably Mettler Toledo DL39 Karl Fisher Coulometer, or an equivalent apparatus, including a titration cell without diaphragm. Alternatively, the volumetric Karl Fisher method can be used to determine the water content. […] The water content can be achieved by choosing appropriate ingredients, drying, wetting or combination thereof.

Data set [2] in a line: Compatibility study, closed container: sum of impurities by HPLC.
Method: Afterwards, the two components were blended in Turbula® at 72 rpm for 10 minutes. The resulting blend was compacted in the EKO eccentric compression machine in order to obtain a slug. The slug was milled manually, resulting into a milled blend. The milled blend (440 mg) was accurately weighed and placed in glass, opaque vial. […] The milled blend was then analyzed for a sum of area percent levels of impurities (A^imp) by HPLC. The HPLC was performed on Acquity UPLC BEH C8, 150×2.1 mm, dp=1.7 μm column. The detection with UV light at wavelength of 259 nm was used. The column was eluted, using a gradient method, with aqueous ammonium acetate (10 mM, pH 5.5) and acetonitrile at column temperature of 50° C. for 30 min.
[3] abbreviates: Excipients - substantially dry w(H2O) < 0.5%.
Where [4] appears, read: siponimod adipic acid co-crystal:excipient 1:10 (w/w), excipients substantially dry w(H2O) < 0.5%, closed container, 1 month, 40° C., RH 75%.
The mark [5] stands for this setting: Excipients - dry 0.5% ≤ w(H2O) < 5%.
Where [6] appears, read: Excipients - hydrated w(H2O) ≥ 5%.

Like-named read-outs stand apart in the source and are kept apart here.

Magnesium stearate: the “w (H2O)” value in data set [1] (setting [3]) is 0.2%. For the same compound, the “A^imp (1 m), sum of area percent levels of impurities” value in data set [2] is 0.16%.
As for `CCCCCCCCCCCCCCCCCCOC(=O)/C=C/C(=O)[O-].[Na+]` [Sodium stearyl fumarate], the “w (H2O)” value in data set [1] (setting [3]) is reported as 0.4%. In addition, in data set [2] (setting [4]), the “A^imp (1 m), sum of area percent levels of impurities” value worked out at 0.08%.
For `CCCCCCCCCCCCCCCCCCO` [Stearyl alcohol] the same measures were 0.3% and 0.05%.
As to `OC[C@@H](O)[C@@H](O)[C@H](O)[C@H](O)CO` [Mannitol], the “w (H2O)” value in data set [1] (setting [5]) was 0.6%.
For the compound Isomalt, the “w (H2O)” value in data set [1] (setting [5]) is recorded as 2.9%; in data set [1] (setting [6]), 5.0%.
Consider `CCc1cc(/C(C)=N/OCc2ccc(C3CCCCC3)c(C(F)(F)F)c2)ccc1CN1CC(C(=O)O)C1` [Siponimod adipic acid co-crystal], for which the “w (H2O)” value in data set [1] (Active ingredients) turned out to be 0.2%. Besides, in data set [2] (Active ingredients, closed container, t = 1 month, 40° C., RH 75%), the “A^imp (1 m), sum of area percent levels of impurities” value is listed as 0.09%.
In the case of `CCCCCCCCCCCCCCCCCCCCCC(=O)OCC(CO)OC(=O)CCCCCCCCCCCCCCCCCCCCC` (stereo not shown) [Glycerol dibehenate], the “w (H2O)” value in data set [1] (setting [3]) amounted to 0.1%. Moreover, in data set [2] (setting [4]), the “A^imp (1 m), sum of area percent levels of impurities” value is recorded as 0.08%.
In the same order, the values of `CCCCCCCCCCCCCCCCCC(=O)OCC(O)CO` (stereo not shown) [Glycerol monostearate] are 0.2% and 0.12%.
Regarding `OC[C@H]1O[C@@H](O[C@H]2[C@H](O)[C@@H](O)C(O)O[C@@H]2CO)[C@H](O)[C@@H](O)[C@H]1O` (stereo partly shown) [Lactose], the “w (H2O)” value in data set [1] (setting [6]) is reported as 5.0%.
